The source made the active and inactive calls. No cut-off for these calls is given here.
Key:
[1] = molecular target: T1, Serine/threonine-protein kinase mTOR (Homo sapiens, UniProt P42345); experiment: Inhibition of mTOR (unknown origin)
Histone deacetylase 1 = Histone deacetylase 1 (Homo sapiens, UniProt Q13547); experiment: Inhibition of HDAC1 (unknown origin)
A549 = experiment: Antiproliferative activity against human A549 cells assessed as reduction in cell viability; assay type: functional, cell-based
HCT-116 = experiment: Antiproliferative activity against human HCT-116 cells assessed as reduction in cell viability; assay type: functional, cell-based
MV4-11 = experiment: Antiproliferative activity against human MV4-11 cells harboring FLT3-ITD mutant assessed as reduction in cell viability; assay type: functional, cell-based
[2] = molecular target: T1, Serine/threonine-protein kinase mTOR; experiment: Inhibition of mTOR complexes in human MV4-11 cells assessed as suppression of phosphorylation of S6 ribosomal at Ser235/236 residues at 300 nM by Western blot analysis relative to control; assay type: cell-based
[3] = molecular target: T1, Serine/threonine-protein kinase mTOR; experiment: Inhibition of mTOR complexes in human MV4-11 cells assessed as reduction in p-AKT(Ser473) protein level at 300 nM by Western blot analysis relative to control; assay type: cell-based
[4] = molecular target: T2, Histone deacetylase (Homo sapiens) (UniProt Q13547+O15379+Q9UBN7+Q92769+Q9UQL6+Q8WUI4+Q9BY41+Q96DB2+P56524+Q9UKV0+Q969S8); experiment: Inhibition of HDAC in human MV4-11 cells assessed as increase in acetylation of histone H3 (ac-H3 K9) by Western blot analysis relative to control; assay type: cell-based
[5] = molecular target: T2, Histone deacetylase (Homo sapiens); experiment: Inhibition of HDAC in human MV4-11 cells assessed as increase in acetylation of alpha-tubulin at Lys40 residue by Western blot analysis relative to control; assay type: cell-based
[6] = molecular target: T3, Protein deacetylase HDAC6 (Homo sapiens, UniProt Q9UBN7); experiment: Inhibition of HDAC6 (unknown origin)
T3 sequence (Q9UBN7 whole entry): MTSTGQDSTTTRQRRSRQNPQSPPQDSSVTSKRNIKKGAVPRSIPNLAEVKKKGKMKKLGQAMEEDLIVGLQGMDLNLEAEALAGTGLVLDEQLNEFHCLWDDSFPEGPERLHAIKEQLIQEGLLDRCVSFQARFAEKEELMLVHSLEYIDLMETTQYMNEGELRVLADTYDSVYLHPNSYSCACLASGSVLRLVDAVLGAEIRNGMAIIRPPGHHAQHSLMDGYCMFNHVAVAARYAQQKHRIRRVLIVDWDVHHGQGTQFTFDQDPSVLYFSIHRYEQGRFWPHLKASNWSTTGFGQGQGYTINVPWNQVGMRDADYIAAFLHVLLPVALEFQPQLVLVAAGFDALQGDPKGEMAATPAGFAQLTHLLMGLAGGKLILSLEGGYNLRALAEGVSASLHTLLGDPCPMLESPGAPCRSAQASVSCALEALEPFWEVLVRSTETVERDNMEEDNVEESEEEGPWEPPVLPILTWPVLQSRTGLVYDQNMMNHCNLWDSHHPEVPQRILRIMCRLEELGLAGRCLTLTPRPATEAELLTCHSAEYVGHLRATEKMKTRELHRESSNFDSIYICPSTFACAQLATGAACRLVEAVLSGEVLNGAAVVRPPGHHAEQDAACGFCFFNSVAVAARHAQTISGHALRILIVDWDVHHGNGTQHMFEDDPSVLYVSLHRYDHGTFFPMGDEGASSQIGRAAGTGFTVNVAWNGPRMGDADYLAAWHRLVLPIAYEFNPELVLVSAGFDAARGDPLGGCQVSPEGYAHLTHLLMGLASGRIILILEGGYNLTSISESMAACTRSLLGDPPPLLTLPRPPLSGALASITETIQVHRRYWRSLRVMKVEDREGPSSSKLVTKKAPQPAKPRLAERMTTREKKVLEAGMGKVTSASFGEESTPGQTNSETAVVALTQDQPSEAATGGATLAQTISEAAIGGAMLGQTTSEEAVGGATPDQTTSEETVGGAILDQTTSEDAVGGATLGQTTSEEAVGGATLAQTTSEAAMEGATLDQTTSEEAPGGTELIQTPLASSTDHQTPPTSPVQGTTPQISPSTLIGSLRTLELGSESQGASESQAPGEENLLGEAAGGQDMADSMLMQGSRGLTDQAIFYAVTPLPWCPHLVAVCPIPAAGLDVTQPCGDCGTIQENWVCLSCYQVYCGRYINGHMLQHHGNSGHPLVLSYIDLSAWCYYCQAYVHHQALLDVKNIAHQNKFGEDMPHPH

Histone deacetylase 8 = molecular target: T4, Histone deacetylase 8 (Homo sapiens, UniProt Q9BY41); experiment: Inhibition of HDAC8 (unknown origin)
T4 sequence (Q9BY41 whole entry): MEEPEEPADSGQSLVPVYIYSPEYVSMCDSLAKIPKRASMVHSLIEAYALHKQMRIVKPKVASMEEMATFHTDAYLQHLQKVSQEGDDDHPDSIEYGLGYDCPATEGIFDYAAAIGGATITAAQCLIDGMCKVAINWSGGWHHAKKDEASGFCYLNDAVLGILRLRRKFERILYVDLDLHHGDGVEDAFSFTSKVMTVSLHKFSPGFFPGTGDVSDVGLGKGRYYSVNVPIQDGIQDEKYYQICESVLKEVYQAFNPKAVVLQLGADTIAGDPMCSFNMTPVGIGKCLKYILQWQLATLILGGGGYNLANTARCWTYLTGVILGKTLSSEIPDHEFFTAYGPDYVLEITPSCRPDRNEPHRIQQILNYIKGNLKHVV

Histone deacetylase 11 = molecular target: T5, Histone deacetylase 11 (Homo sapiens, UniProt Q96DB2); experiment: Inhibition of HDAC11 (unknown origin)
T5 sequence (Q96DB2 whole entry): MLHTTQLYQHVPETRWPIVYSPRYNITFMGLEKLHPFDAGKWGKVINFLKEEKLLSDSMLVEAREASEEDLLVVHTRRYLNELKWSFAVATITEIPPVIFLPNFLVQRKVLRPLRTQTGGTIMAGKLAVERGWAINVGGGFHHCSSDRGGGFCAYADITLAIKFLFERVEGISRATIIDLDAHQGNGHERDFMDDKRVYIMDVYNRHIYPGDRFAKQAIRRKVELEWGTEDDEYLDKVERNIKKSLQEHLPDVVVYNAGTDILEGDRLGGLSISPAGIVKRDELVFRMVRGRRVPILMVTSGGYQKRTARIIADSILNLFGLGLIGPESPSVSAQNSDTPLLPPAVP

Chain of Histone deacetylase 1 (Q13547 whole entry): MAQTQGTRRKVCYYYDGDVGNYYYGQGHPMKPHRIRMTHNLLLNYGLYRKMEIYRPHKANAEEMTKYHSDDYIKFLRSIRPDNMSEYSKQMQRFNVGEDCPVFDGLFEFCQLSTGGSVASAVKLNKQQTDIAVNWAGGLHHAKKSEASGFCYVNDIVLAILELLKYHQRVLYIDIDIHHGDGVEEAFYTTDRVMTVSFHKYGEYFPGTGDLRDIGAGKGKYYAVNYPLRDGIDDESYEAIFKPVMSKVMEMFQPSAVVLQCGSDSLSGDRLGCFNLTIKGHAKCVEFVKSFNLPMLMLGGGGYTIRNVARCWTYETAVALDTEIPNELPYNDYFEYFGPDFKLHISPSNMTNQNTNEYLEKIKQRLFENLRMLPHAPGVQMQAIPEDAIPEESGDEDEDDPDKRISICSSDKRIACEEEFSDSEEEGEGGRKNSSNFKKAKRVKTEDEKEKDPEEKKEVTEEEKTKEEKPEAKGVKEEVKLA

Row | Structure (SMILES) | IC50 [1] | IC50 (Histone deacetylase 1) | other results
1 | Nc1nc2cc(-c3nn(CC4CCN(C(=O)c5ccc(C(=O)NO)s5)CC4)c4ncnc(N)c34)ccc2o1 | 0.0004 µM | 0.0059 µM | IC50 (A549): 5.9 µM; IC50 (HCT-116): > 10 µM; IC50 (MV4-11): 5.21 µM
2 | Nc1nc2cc(-c3nn(Cc4ccc(C(=O)NO)o4)c4ncnc(N)c34)ccc2o1 | 0.018 µM | > 1 µM | –
3 | Nc1nc2cc(-c3nn(Cc4ccc(C(=O)NO)cc4)c4ncnc(N)c34)ccc2o1 | 0.018 µM | 0.005 µM | –
4 | Nc1nc2cc(-c3nn(CC4CCN(C(=O)c5ccc(C(=O)NO)cc5)CC4)c4ncnc(N)c34)ccc2o1 | 0.00084 µM | 0.012 µM | –
5 | Nc1nc2cc(-c3nn(CC4CCN(c5ncc(C(=O)NO)cn5)CC4)c4ncnc(N)c34)ccc2o1 | 0.00049 µM | 0.00091 µM | IC50 (A549): 2.16 µM; IC50 (HCT-116): 3.85 µM; IC50 (MV4-11): 1.74 µM; inhibition [2]: Active; inhibition [3]: Active; inhibition [4]: Dose-Dependent Effect; inhibition [5]: Dose-Dependent Effect; IC50 [6]: 0.086 µM; IC50 (Histone deacetylase 8): 0.027 µM; IC50 (Histone deacetylase 11): > 1 µM
6 | Nc1nc2cc(-c3nn(CCCCCCC(=O)NO)c4ncnc(N)c34)ccc2o1 | 0.0017 µM | 0.00078 µM | IC50 (A549): 2.86 µM; IC50 (HCT-116): 3.78 µM; IC50 (MV4-11): 4.13 µM; IC50 [6]: 0.0015 µM; IC50 (Histone deacetylase 8): 0.021 µM; IC50 (Histone deacetylase 11): > 1 µM
7 | Nc1nc2cc(-c3nn(Cc4ccc(C(=O)NO)cn4)c4ncnc(N)c34)ccc2o1 | 0.025 µM | 0.011 µM | –
8 | Nc1nc2cc(-c3nn(Cc4ccc(C(=O)NO)s4)c4ncnc(N)c34)ccc2o1 | 0.027 µM | 0.012 µM | –
9 | Nc1nc2cc(-c3nn(CC4CCN(C(=O)CCCCC(=O)NO)CC4)c4ncnc(N)c34)ccc2o1 | 0.0019 µM | 0.065 µM | –

Now from value to compound, other results behind:

Row | IC50 [1] | IC50 (Histone deacetylase 1) | Structure (SMILES) | other results
10 | > 1 µM | 0.011 µM | Nc1ncc(-c2nn(CCCCCCC(=O)NO)c3ncnc(N)c23)cn1 | –
11 | > 1 µM | > 1 µM | Nc1ccc(-c2nn(CCCCC(=O)NO)c3ncnc(N)c23)cn1 | –
12 | 0.151 µM | 0.0073 µM | Nc1ccc(-c2nn(CCCCCCC(=O)NO)c3ncnc(N)c23)cn1 | –
13 | > 1 µM | 0.479 µM | Nc1ncc(-c2nn(CCCCC(=O)NO)c3ncnc(N)c23)cn1 | –
14 | 0.677 µM | 0.065 µM | Nc1ncnc2c1c(-c1cnc3ccccc3c1)nn2CCCCC(=O)NO | –
15 | 0.00376 µM | 0.083 µM | Nc1nc2cc(-c3nn(CCCCC(=O)NO)c4ncnc(N)c34)ccc2o1 | –
16 | 0.619 µM | 0.0041 µM | Nc1ncnc2c1c(-c1cnc3ccccc3c1)nn2CCCCCCC(=O)NO | –

Reference: ChEMBL document CHEMBL4808220, “Discovery of novel pyrazolopyrimidine derivatives as potent mTOR/HDAC bi-functional inhibitors via pharmacophore-merging strategy” (Bioorg Med Chem Lett, 2021)
